Experimental data taken from US12246034B2, “Animal feed supplement and method” (CAN TECHNOLOGIES, INC., priority 2014, dated 2025).
Read-outs that look alike come from different tables or passages of the source.

Assays:
sows [1] = settings: for NBA (Number Born Alive) / TNB (Total Number Born) / Litter growth, 24 hour to 3 days / Litter growth, Start to 24 hour / Litter growth, Start to 3 days / Piglet weight, 24 hour / Piglet weight, 3 days / Piglet weight, Start / Birth weight: LS Means ± SEM; for NBD (Number Born Death), stillborn piglets / Mortality: log transformed, back-transformed to absolute values; for Litter weight, 24 hour / Litter weight, 3 days / Litter weight, Start: corrected for mortality and cross fostering; for Birth weight: litter
Description: A field trial was conducted on a commercial farm in Denmark with 650 highly productive Danbred sows (Landrace x Yorkshire) inseminated with a pure line Duroc boar, between Nov. 17, 2014 and Jan. 16, 2015. A total of 139 sows (total number before analyzes) were included in the trial, divided over 3 subsequent sow groups farrowing over a time span of 6 weeks. For all analyzes SAS software (version 9.3, SAS Institute Inc., Cary, N.C.) was used. Sows received a dry meal transition feed (from gestation to lactation), fed from day 111 of gestation till day 5 of lactation, and were allocated to one of the two treatment groups based on parity. […] The total amount of calcium was equal between both experimental treatments. Number born alive (NBA), stillborn and mummies, litter birth weight, as well as back fat of the sows before farrowing (day 110 of gestation) and at weaning (day 24 of lactation) were measured. Litter weights at 24 hours and 3 days after birth were measured as well. On day 3 after birth blood samples were taken from 6 piglets (2 biggest, 2 medium and 2 smallest) from 65 litters of their tails when they were cut and analyzed on immunoglobulin G (IgG) concentration. Placentas of the sows were collected after the farrowing process was finished, stored in freezers and afterwards scored on redness for an indication of the vascularization of these placentas.

sows [2] = settings: for Probability of piglet Livability: 1-((stillborn + died pre weaning)/total pigs after cross fostering)
Text: During lactation, sows were fed either the positive control or negative control standard lactation diet according to a step-up feeding schedule. Until farrowing the sows were fed a fixed amount of either the positive or negative controls of the standard lactation diet twice a day. After farrowing the amount of feed either the positive or negative controls of the standard lactation diet fed was increased gradually till a maximum of 8 kg/sow per day. The amount of which could be adjusted based on the appetite of the sow. Piglets were fed Ad libitum (no milk was provided other than from the sow a commercial creep feed (meal, dry) from day 4-16 of age and a pelleted commercial prestarter from day 16 till weaning. In total, 150 sows were allocated over the three rooms based on parity. Within 2 days after farrowing, litters were standardized to 13-14 piglets per sow.
The following measurements were recorded as shown in TABLE 1C: (i) sow weight and backfat thickness when entering the farrowing room (day 111 of gestation) and at weaning (22 days post farrowing); (ii) sow reproductive performance was recorded right after farrowing (number of piglets born total, alive, stillborn, mummified); (iii) piglets weights were recorded at birth, day 5 after birth and at weaning; (iv) creep feed intake of piglets between day 4 and weaning was recorded; (v) number of piglets alive at day 4 and at weaning were registered; (vi) when piglets died, the reason for dying was also registered; and (vii) interventions during the birth process (e.g. the use of planate, oxytocin and birth assistance).

sows [3] = settings: 0.1% calcium nitrate in phase 1 diet, 19 May 2014 till 16 Aug. 2014
Description: 600 sows and all sows were fed two diets over the test period. The first diet (phase 1) was fed from approximately 5 days pre-farrowing until 5 days post-farrowing. The second diet (phase 2) was fed from day 5 post-farrowing until weaning.
The following measurements were recorded as shown in TABLE 2A: (i) gestation length; (ii) sow reproductive performance was recorded right after farrowing (number of piglets born total, alive, stillborn); (iii) piglet; (iv) total piglets weaned; (v) weaning weights; and (vi) piglets per sow per year; and […].

[4] = 0.1% Bolifor CNF in transition feed, listed as Bolifor CNF ®
[5] = 0.1% Bolifor CNF in transition feed, listed as Bolifor CNF®
[6] = 0.1% Bolifor CNF, listed as Bolifor CNF ®
[7] = 0.1% Bolifor CNF, listed as Bolifor CNF®
[8] = 0.1% Bolifor CNF in lactation diet, means
[9] = 0.1% Bolifor CNF, induction of sows as covariable
[10] = 0.1% Bolifor CNF, induction of sows as covariable, listed as calcium nitrate
[11] = piglets, 0.1% Bolifor CNF, corrected for lactation length

SMILES: O=[N+]([O-])[O-].O=[N+]([O-])[O-].[Ca+2] [Bolifor CNF, calcium nitrate]
- NBA (Number Born Alive) (sows [1]; [4]): 16.84 ± 0.170
- TNB (Total Number Born) (sows [1]; [4]): 17.90 ± 0.460
- NBA (Number Born Alive) (sows [1]; [5]): 16.84
- TNB (Total Number Born) (sows [1]; [5]): did not differ
- NBD (Number Born Death), stillborn piglets (sows [1]; [4]): 1.32 ± 0.006
- NBD (Number Born Death), stillborn piglets (sows [1]; [5]): 1.32
- Litter growth, 24 hour to 3 days (sows [1]; [6]): 1.80 ± 0.140 kg/day
- Litter growth, Start to 24 hour (sows [1]; [6]): 1.21 ± 0.161 kg/day
- Litter growth, Start to 3 days (sows [1]; [6]): 3.03 ± 0.234 kg/day
- Piglet weight, 24 hour (sows [1]; [6]): 1.41 ± 0.012 kg
- Piglet weight, 3 days (sows [1]; [6]): 1.55 ± 0.018 kg
- Piglet weight, Start (sows [1]; [6]): 1.32 ± 0.046 kg
- Litter growth, 24 hour to 3 days (sows [1]; [7]): no differences were found
- Litter growth, Start to 24 hour (sows [1]; [7]): no differences were found
- Litter growth, Start to 3 days (sows [1]; [7]): no differences were found
- Piglet weight, 24 hour (sows [1]; [7]): did not differ
- Piglet weight, 3 days (sows [1]; [7]): did not differ
- Piglet weight, Start (sows [1]; [7]): did not differ
- Colostrum, CI per piglet (sows [1]; 0.1% Bolifor CNF, calculated colostrum intake): 222.02 g
- Colostrum, CI (Colostrum Intake) (sows [1]; 0.1% Bolifor CNF, calculated colostrum intake, listed as Bolifor CNF ®): 2858.60 g
- Colostrum, CI (Colostrum Intake) (sows [1]; 0.1% Bolifor CNF, calculated colostrum intake, listed as Bolifor CNF®): No differences were found
- Litter weight, 24 hour (sows [1]; [6]): 18.14 kg
- Litter weight, 3 days (sows [1]; [6]): 19.93 kg
- Litter weight, Start (sows [1]; [6]): 16.70 kg
- Litter weight, 24 hour (sows [1]; [7]): did not differ
- Litter weight, 3 days (sows [1]; [7]): did not differ
- Litter weight, Start (sows [1]; [7]): did not differ
- Piglet growth, 24 hour to 3 days (sows [1]; [6]): 0.140 kg/day
- Piglet growth, Start 3 days (sows [1]; [6]): 0.235 kg/day
- Piglet growth, Start to 24 hour (sows [1]; [6]): 0.093 kg/day
- Piglet growth, 24 hour to 3 days (sows [1]; [7]): no differences were found
- Piglet growth, Start 3 days (sows [1]; [7]): no differences were found
- Piglet growth, Start to 24 hour (sows [1]; [7]): no differences were found
- Mortality (sows [1]; [6]): 1.87
- Mortality (sows [1]; [7]): did not differ
- Birth weight (sows [1]; [4]): 21.70 ± 0.614 kg
- Birth weight (sows [1]; [5]): did not differ
- NBD, highest parity group (sows [1]; parities >4, 0.1% Bolifor CNF in transition feed): 1.21
- Probability Born Mummified (sows [2]; 0.1% Bolifor CNF in lactation diet): 2.3%
- Total born (sows [2]; [8]): 16.3
- Total born alive (sows [2]; [8]): 15.3
- Total still born (sows [2]; [8]): 1.0
- Total weaned (sows [2]; [8]): 13.1
- Probability of piglet Livability (sows [2]; 0.1% Bolifor CNF): 89.8
- Probability of piglet Livability (sows [2]; 0.1% Bolifor CNF, listed as calcium nitrate): numerically higher
- Probability Still Born (sows [2]; [9]): 6.2%
- Probability born alive (sows [2]; [9]): 93.8%
- Probability of piglet mortality from cross fostering (day 4-5)-weaning (sows [2]; [9]): 2.0%
- Probability of piglets alive at day 4-5 (sows [2]; [9]): 92.5%
- Probability Still Born (sows [2]; [10]): numerically lower
- Probability born alive (sows [2]; [10]): numerically higher
- ADG 0-5 (sows [2]; piglets, 0.1% Bolifor CNF): 157 g/day
- ADG 5-weaning (sows [2]; piglets, 0.1% Bolifor CNF): 245.3 g/day
- Average birth weight (sows [2]; piglets, 0.1% Bolifor CNF): 1.36 kg
- Average weight post fostering (sows [2]; piglets, 0.1% Bolifor CNF): 2.30 kg
- Litter weight Pre fostering (sows [2]; piglets, 0.1% Bolifor CNF): 19.8 kg
- Litter weight post fostering (sows [2]; piglets, 0.1% Bolifor CNF, calculated, not measured): 30.8 kg
- Average weight at weaning (sows [2]; [11]): 6.71 kg
- Litter weight at weaning (sows [2]; [11]): 82.0 kg
- Litter weight at weaning (sows [2]; piglets, 0.1% Bolifor CNF, corrected for lactation length, listed as calcium nitrate): numerically higher
- Born Alive (sows [3]): 15.8
- Mortality (sows [3]): 10.5%
- Piglets/sow/year (sows [3]): 34.1
- Pregnancy rate (sows [3]): 94.5%
- Total born (sows [3]): 17.3
- Weaning weight (sows [3]): 6.7 kg
- Piglet Livability (sows [3]; listed as Calcium nitrate): 82.7%
- Piglets Weaned (sows [3]; listed as Calcium nitrate): 14.3
- Still Born (sows [3]; listed as Calcium nitrate): 1.5
- Piglet Livability (sows [3]; listed as calcium nitrate): increase
- Piglets Weaned (sows [3]; listed as calcium nitrate): increase
- Still Born (sows [3]; listed as calcium nitrate): decrease
